Patent US9334272B2, “Derivatives of purinic and pyrimidinic antiviral agents and use thereof as potent anticancer agents” (Ramot at Tel-Aviv University Ltd., priority 2007, dated 2016)
Values belong to the molecule of their own block, whether it stands above or below them.

What was measured:
[1] = system: phospho-H2AX (Ser139); experiment: Phospho-H2AX Western blot, U-251 cells; format: cell-based, human; settings: 60 μM, 0.5, 2 or 24 hours, peak after 2 hours
Description: Cell lysates or acid extracted histones were solubilized in a concentrated (×4) loading buffer (62.5 mM Tris-HCl, pH 6.8, 1% SDS, 10% glycerol v/v, 1% dithiothreitol (DTT) and 0.1 mg/ml bromophenol blue). Proteins (10-40 μg) were run on SDS-PAGE, transferred to a nitrocellulose membrane (Schleicher & Schuell, Germany) and probed with the primary antibodies, followed by incubation with a horseradish peroxidase (HRP)-goat anti-rabbit IgG or HRP-rabbit anti-mouse IgG as secondary antibodies. HRP bound to the secondary antibodies was visualized by the enhanced chemiluminescence method using the Western Blotting Luminol reagent (Santa Cruz, Calif., USA). The membrane was exposed for 5 minutes to Chemiluminescence BioMax light film (Kodak, USA) and the intensity of the bands was measured with a VersaDoc instrument with a Quantityl program (Bio-Rad, USA). The fold increase of each specific protein was determined by the ratio of band intensities of treated and untreated cells, normalized to loading control (actin or total histone H3).

[2] = system: U-251 cells; experiment: Mitochondrial membrane potential (JC-1 staining), U-251 cells; format: cell-based, human; settings: 60 μM, 24 hour treatment
[3] = system: ICR mice; experiment: Acute toxicity assay in mice; format: in vivo; settings: 2 weeks
Source text: (§1) Male ICR mice, 8 weeks old (Harlan, Israel) were acclimated for 10 days before administration of the tested compounds. The animals were monitored for two weeks and weighed three times per week.

[4] = Acute toxicity assay in mice; format: in vivo; settings: male, mouse, in vivo; single per os dose, ICR mice
Source text: as §1

[5] = system: 4T1 murine breast carcinoma; experiment: Metastatic 4T1 breast carcinoma model; format: in vivo, mice; settings: 4T1 model; for anti-cancer activity (number of metastases and lung weight): 40 or 80 mg/kg, FIG. 18
Description: The syngeneic murine breast carcinoma metastatic model was performed with 8-10 weeks old BALB-c mice implanted with 4T1 cells. When the tumor volume reached 75-180 mm^3 (after ˜10 days), treatment was initiated for an additional 21 days. At termination, the animals were sacrificed and their lungs removed, stained with Bouin's solution, and lung lesions were scored under an illuminated magnifying glass.

[6] = system: 3LLD122 Lewis lung carcinoma; experiment: Metastatic Lewis lung carcinoma (3LL) model; format: in vivo, mice; settings: Compound 6 30 mg/kg, Compound 7 25 mg/kg, per os thrice per week, 21 days; p<0.02 vs acyclovir
Description: Female C57/BL mice, 7-10 weeks old, were acclimated for ten days. All in vivo experiments were conducted according to the NIH Laboratory Animal Care Guidelines and in accordance with the guidelines and approval of the Tel Aviv University Committee for Animal Experimentation.
The subclone 3LLD122 of 3LL used in the study was selected for its aggressive and invasive nature. […] The animals were sacrificed after 21 days of treatment, their lungs were weighed, stained with Bouin's fixative and the metastatic lesions were scored double-blindly.

[7] = system: acetylated histone H4; experiment: In vivo histone H4 acetylation in 4T1 tumors (Western blot); parameters: species or system mice; settings: 100 mg/kg each, 4 hours after treatment, vs vehicle
Description: For the determination of in vitro histone acetylation, 2.5-3×10^6 cells, seeded in 100 mm culture dishes, were supplemented with RPMI medium containing 10% heat inactivated FCS and were treated with the drugs the following day. At the specified times post-treatment, the cells were removed with a rubber policeman, centrifuged, washed, lysed with lysis buffer (PBS, Nonidet® NP-40 1%, sodium deoxycholate 0.5%, sodium dodecyl sulfate (SDS) 0.1%, 1 mM phenylmethylsulfonyl fluoride (PMSF), 1 mM sodium orthovanadate, and 1 μM each of leupeptin and pepstatin) and centrifuged at 10,000 g for 10 minutes at 4° C. […] The extract was then lyophilized, and protein concentration was determined with a BCA kit (Pierce, USA). […] The fold increase of acetylated histones was determined by the ratio of band intensities of treated and untreated cells or mice, normalized to loading control (total histone H3).
Cell lysates or acid extracted histones were solubilized in a concentrated (×4) loading buffer (62.5 mM Tris-HCl, pH 6.8, 1% SDS, 10% glycerol v/v, 1% dithiothreitol (DTT) and 0.1 mg/ml bromophenol blue). […] The membrane was exposed for 5 minutes to Chemiluminescence BioMax light film (Kodak, USA) and the intensity of the bands was measured with a VersaDoc instrument with a Quantityl program (Bio-Rad, USA). […]

[8] = system: 4T1 cells; experiment: Hoechst viability assay, 4T1 breast carcinoma cells (Dox combination); format: cell-based, murine; settings: Mus musculus, 72 hours, 3 experiments
Description: (§2) Cells (in quadruplicate) at the specified density were suspended in 200 μL medium supplemented with 10% FCS seeded in 96-well plates for 24 hours, then exposed to the drugs for 72 hours. The viability of the cells was determined by Hoechst fluorescent assay as described by Nudelman et al., 2005. Leukemic cell viability after 72 hours of treatment was determined by an MTT (3-(4,5-dimethylthiazol-2-yl)-2,5-diphenyltetrazolium bromide) assay as described by Levovich et al., 2007.
(§3) IC50 values were determined by linear regression of the percentage of survival following drug titration.
The combination index for drug interaction was calculated by Chou's Median Effect Analysis (MEA) [Chou, 2006]. The combination index (CI) was defined as CI=D1/(DM)1+D2/(DM)2, where D1 and D2 are the doses of drug 1 and drug 2, respectively, (DM)1 and (DM)2 are the doses of drug 1 and drug 2 and their mixture (in a specified ratio) required to produce a median effect, e.g., IC50. CI<1, =1 or >1 indicates synergism, additive effect, and antagonism respectively.

[9] = system: rat primary cardiomyocytes; experiment: ROS production (DCF-DA) in rat primary cardiomyocytes; format: cell-based; settings: 2 μM
Description: Neonatal rat ventricular cardiomyocytes were isolated and cultured in collagen coated culture dishes as described by Shalitin et al., 1996. Growth medium contained DMEM:Ham's F12 (1:1), fetal calf serum (10%) and antibiotics. Treatment was administered to spontaneously beating cardiomyocytes 48 hours after plating.

[10] = system: U-251 cells; experiment: Hoechst viability assay, U-251 glioma cells; format: cell-based, human; settings: Homo sapiens, 72 hours, Hoechst, read-out: IC50
Description: as §2, §3

[11] = system: 22RV1 cells; experiment: Hoechst viability assay, 22RV1 prostate carcinoma cells; format: cell-based, human; settings: Homo sapiens, 72 hours, Hoechst, read-out: IC50
Description: as §2, §3

[12] = system: U-251 cells; experiment: Apoptosis/cell death by annexin V-FITC and propidium iodide FACS, U-251 cells; format: cell-based; settings: U-251 cells, 24 hours
Description: Cells were seeded in six-well plates (10^5 cells/well) for 24 hours and were then treated as specified, trypsinized, washed with PBS, double-stained with annexin V-FITC (fluorescein isothiocyanate) and propidium iodide, according to the manufacturer's instructions and subjected to flow cytometry analysis (FACScalibur cytometer, Becton Dickinson).

[13] = system: U-251 cells; experiment: Reactive oxygen species by DCF-DA FACS, U-251 cells; format: cell-based, human; settings: 2 hour treatment
Description: ROS levels were determined by FACS analysis of U-251 cells treated with dichlorodihydrofluorescein diacetate (DCF-DA), which becomes fluorescent when oxidized.

[14] = target: T1, proteasome (Homo sapiens, UniProt P28074); experiment: Proteasome activity assay, U-251 cells; format: cell-based; settings: 4 or 24 hours, alone or in combination
T1 construct: proteasome activity in U-251 cells treated for 4 or 24 hours; endogenous in cells; host or cells: U-251 cells (lysates of treated cells)
T1 sequence (P28074 60-263): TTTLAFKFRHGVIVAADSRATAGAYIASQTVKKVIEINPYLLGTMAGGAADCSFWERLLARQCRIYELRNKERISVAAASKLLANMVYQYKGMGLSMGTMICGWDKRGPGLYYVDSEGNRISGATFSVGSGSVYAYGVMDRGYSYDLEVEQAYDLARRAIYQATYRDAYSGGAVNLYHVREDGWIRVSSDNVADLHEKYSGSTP
Description: The peptidase or chymotrypsin-like activity of the proteasome was assayed using N-succinyl-Leu-Leu-Val-Tyr-7-amido-4-methylcoumarin. The lysates (100 μL) were incubated with 13 (M of the substrate in 100 mM Tris, pH 7.5, for 1 hour with shaking at room temperature. The reaction was stopped by addition of ice-cold ethanol, and the samples were centrifuged for 5 minutes at 2500 g. The supernatants were collected and the fluorescence was measured with excitation/emission filters of 390/460 nm using the FluoStar fluorimeter. The protein concentration was determined using a BCATM kit (Pierce) and the proteasome activity was derived from the ratio of fluorescence at 460 nm/(g of protein. The percentage of proteasome activity was calculated relative to untreated cells.

[15] = system: U-251 cells; experiment: Cell cycle analysis (propidium iodide flow cytometry), U-251 cells; format: cell-based, human; settings: 24 hours
Description: Cells (4×10^5) were seeded in 35 mm culture dishes and after 24 hours were starved in medium without serum for an additional 24 hours, and then treated with the drug for an additional 24 hours. The cells were then trypsinized to a single cell suspension in PBS, washed, and resuspended in PBS at a concentration of 10^6 cells/mL. The cells were fixed with 70% ethanol for 30 minutes at 4° C., centrifuged and resuspended in 1 ml PBS containing 0.1% Tween 20 and 0.05% bovine serum albumin (BSA). RNase free of DNase was added, and the cell suspension (10^6 cells) was incubated at […] for 30 minutes. The cell suspension was then chilled on ice to a temperature in the range of 2 to 8° C. Propidium iodide (50 μg/mL) was added to the cell suspension, which was than kept in the dark. Red fluorescence (>630 nm) was analyzed on the flow cytometer.

Compound: O=C(/C=C/c1ccccc1)Nc1nc2c(ncn2COCCOC(=O)/C=C/c2ccccc2)c(=O)[nH]1 [Compound 22, N-cinnamoyl-9-(2-cinnamoyloxy)-ethoxymethylguanine]
- level of phosphorylated H2AX [1]: induced an increase in the level of phosphorylated H2AX
- mitochondrial membrane potential [2]: no apparent effect

Compound: CCCC(=O)Nc1nc2c(ncn2COCCOC(=O)CCC)c(=O)[nH]1 [Compound 7, N-butyryl-9-(2-butyryloxy)ethoxymethylguanine]
- Survival (%) ([3]; single per os dose 150 mg/kg): 100%
- Survival (%) ([3]; single per os dose 200 mg/kg): 100%
- Survival (%) ([3]; single per os dose 250 mg/kg): 100%
- Survival (%) ([3]; single per os dose 500 mg/kg): 100%
- Survival (%) ([3]; single per os dose 750 mg/kg): 100%
- LD50 at 2 weeks [4]: > 750 mg/kg
- lung weight ([5]; 25 mg/kg, p<0.05): reduction in lung weight
- number of observed lung lesions ([5]; 25 mg/kg, p<0.05): reduction in the number of observed lung lesions
- anti-cancer activity (number of metastases and lung weight) [5]: significant anti-cancer activity
- number of lung macro-lesions (anti-metastatic activity) [6]: significant anti-metastatic activity
- levels of acetylated H4 in tumors [7]: significantly higher levels of acetylated H4

Compound: CCCCCC(=O)Nc1nc2c(ncn2COCCOC(=O)CCCCC)c(=O)[nH]1 [Compound 20, N-hexanoyl-9-(2-hexanoyloxy)-ethoxymethylguanine]
- anti-cancer activity (number of metastases and lung weight) [5]: little, if any anticancer activity

Compound: CCCCCCCC(=O)Nc1nc2c(ncn2COCCOC(=O)CCCCCCC)c(=O)[nH]1 [Compound 8, N-octanoyl-9-(2-octanoyloxy)ethoxymethylguanine]
- anti-cancer activity (number of metastases and lung weight) [5]: little, if any anticancer activity

The next lines start with results.

- IC50 [8]: 0.0165 µM
Compound: COc1cccc2c1C(=O)c1c(O)c3c(c(O)c1C2=O)C[C@@](O)(C(=O)CO)C[C@@H]3O[C@H]1C[C@H](N)[C@H](O)[C@H](C)O1 [doxorubicin, reference compound]
- production of ROS [9]: increased dramatically the production of ROS

- IC50 [10]: > 750 µM
- IC50 [11]: 402 ± 22 µM
Compound: CCCC(CCC)C(=O)Nc1nc2c(ncn2COCCO)c(=O)[nH]1 [Compound 23, N-valproyl-9-(2-hydroxy)ethoxymethylguanine]
- mitochondrial membrane potential [2]: no apparent effect

- IC50 [10]: 251 ± 12 µM
- IC50 [11]: 241 ± 12 µM
Compound: CCCC(CCC)C(=O)OCCOCn1cnc2c(=O)[nH]c(N)nc21 [Compound 12, 9-(2-valproyloxy)ethoxymethylguanine]
- percentage of apoptotic cells [12]: increased the percentage of apoptotic cells in a dose dependent manner
- mitochondrial membrane potential [2]: no apparent effect

- inhibitory effect on proteasome activity [14]: only a marginal inhibitory effect
Compound: CCCC(CCC)C(=O)O [valproic acid, reference compound]
- level of oxidation in cells (ROS) [13]: little if any effect
- phase of cell-cycle arrest ([15]; 1 mM): G2-M phase
- Percentage of cells in G0-G1 stage ([15]; 1000 μM): 20.3%
- Percentage of cells in G2-M stage ([15]; 1000 μM): 47.5%
- Percentage of cells in S stage ([15]; 1000 μM): 32.5%
